How the values were obtained:
[1] = system: Puccinia recondita f. sp. tritici; assay: Test of curative effect on wheat leaf rust; format: in vivo; details: wheat (Shirogane), foliage application 500 ppm, curative (1 day after inoculation), 6 days after application
Experimental: (§1) The controlling effect was evaluated by visually observing the area or lesion spots on each of test plants at the time of investigation and comparing the area of lesion spots on a plant treated with the present compound with that on an untreated plant.
Test of Curative Effect on Wheat Leaf Rust (Puccinia recondita f. sp. tritici)
Each of plastic pots was filled with sandy loam and sown with wheat (cultivar: Shirogane), followed by growing in a greenhouse for 9 days. The plant was inoculated by sprinkling with spores of Puccinia recondita f. sp. tritici. After the inoculation, the plant was held under darkness and high humidity conditions at 23° C. for 1 day and then air-dried to give a seedling infected with Puccinia recondita f. sp. tritici. The present compound 10 was formulated into a flowable formulation according to Formulation Example 6. The flowable formulation was diluted to a predetermined concentration (500 ppm) with water, and foliage application of the dilution was carried out so that the dilution adhered sufficiently to the surfaces of leaves of the above plant. After the foliage application, the plant was air-dried and held under lighting conditions for 6 days, and then the area of lesions was investigated.

[2] = system: Erysiphe graminis f. sp. tritici; assay: Test of preventive effect on wheat powdery mildew; format: in vivo; details: wheat (Shirogane), foliage application 500 ppm, 7 days after inoculation
Experimental: as §1
Test of Preventive Effect on Wheat Powdery Mildew (Erysiphe graminis f. sp. tritici)
Each of plastic pots was filled with sandy loam and sown with wheat (cultivar: Shirogane), followed by growing in a greenhouse for 10 days. The present compound 8 was formulated into a flowable formulation according to Formulation Example 6. The flowable formulation was diluted to a predetermined concentration (500 ppm) with water, and foliage application of the dilution was carried out so that the dilution adhered sufficiently to the surfaces of leaves of the grown wheat young seedling. After the foliage application, the plant was air-dried and then inoculated by sprinkling with spores of Erysiphe graminis f. sp. tritici. After the inoculation, the plant was held in a greenhouse at 23° C. for 7 days and the area of lesion spots was investigated.

With `C#CCOc1cc(F)c(C(=O)NC(C)C(C)C)cc1F` (centres unmarked) [compound 10] the “area of lesion spots on the treated plant relative to that on an untreated plant” value [1] was at most 30%.

For `C#CCOc1cc(F)c(C(=O)NCC2CCCCC2)cc1F` [compound 8], the “area of lesion spots on the treated plant relative to that on an untreated plant” value [2] was at most 30%.
